Laboratory results taken from patent US7045309B2, “9-substituted adenine derivatives as prodrug regulators of cell and tissue function” (The Research Foundation of State University of New York, priority 2000, dated 2006).
Where two headings read alike, the source gives them in different places. Each block holds one compound with its values, some of them ahead of it.

Key:
[1] = target: rat brain adenylyl cyclase; details: cited from earlier work
Ob1771 pre-adipocytes = test: inhibition of forskolin-stimulated [3H]cAMP formation in cells prelabeled with [3H]adenine, Ob1771; format: cell-based; details: read-out: IC50, forskolin-stimulated [3H]cAMP formation, Ob1771 pre-adipocytes
Method: (§1) The nucleotide prodrugs were tested for their capacity to inhibit the forskolin-stimulated formation of [^3H]cAMP in cells that had been preloaded with [^3H]adenine. Human macrophages and two preadipocyte cell lines were tested.
(§2) (i) Preadipocytes: Preadipocytes were cultured in DMEM LG medium that was supplemented with 8% fetal bovine serum and 1% of an antibiotics mixture in 2 ml Petri dishes until they reached 90-95% confluence. Growth medium was removed and 1 ml of DMEM LG medium containing 2,8-[^3H]-adenine (5μCi) was added to each dish. Cells were incubated for 2 h at 37° C. Medium was removed and cells were incubated for 15 min at 37° C. in 1 ml of unsupplemented medium. The medium was removed and 1 ml of DMEM LG medium supplemented with 0.1 mg/ml bovine serum albumin and 0.1 mM 3-isobutyl-1-methylxanthine was added.
(§3) Ten microliters of a solution of the test substance was added to yield the appropriate concentration of inhibitor in the medium. After 15 min of incubation at 37° C. 3 μl of a 10 mM solution of forskolin in ethanol was added to the medium and the cells were further incubated for 15 min at 37° C. The medium was removed and the reaction was stopped by the addition of 1 ml of a freshly prepared solution of 0.5 mM solution of cAMP in 0.3 M perchloric acid. Dishes were then kept on ice for 30 min. To 800 μl of the resulting cell extract was then added 90 μl of 0.5 M triethanolammonium chloride butler (pH=7.5). The extract was then neutralized by addition of aqueous potassium hydroxide. [^3H]cAMP was purified from a 700 μl portion of this mixture by sequential chromatography on Dowex 50 and alumina as previously described. A portion of the purified sample was used to quantify the […] formed and the remainder was used to quantify recovery by UV spectroscopy.

F442A pre-adipocytes = test: inhibition of forskolin-stimulated [3H]cAMP formation in cells prelabeled with [3H]adenine, F442A; format: cell-based; details: 15 min preincubation, forskolin 15 min
Method: as §1, §2, §3

[2] = tested on: rat brain adenylyl cyclase; test: inhibition of rat brain adenylyl cyclase; format: biochemical
Method: (§4) Adenylyl cyclase activities were determined as previously described, with a reaction mixture containing 100 μM 5′ATP, 5 mM MnCl2, and 100 μM forskolin. IC50 values were determined graphically.

[3] = tested on: adenylyl cyclase of Ob1771 cell membranes; test: inhibition of adenylyl cyclase of Ob1771 cell membranes; format: biochemical; details: for IC50: 100 μM 5′ATP, 5 mM MnCl2, 100 μM forskolin, determined graphically
Method: as §4

Human Macrophages = test: inhibition of forskolin-stimulated [3H]cAMP formation in cells prelabeled with [3H]adenine, macrophages; format: cell-based; details: read-out: IC50, forskolin-stimulated [3H]cAMP formation, Human Macrophages
Method: as §1
(ii) Macrophages. Macrophages were plated on culture dishes and allowed to adhere in RPMI culture medium. Cells were labeled with 2,8-[^3H]-adenine as described above for the preadipocytes.
as §3

preadipocyte cell lines = test: differentiation of preadipocyte cell lines; format: cell-based; details: both preadipocyte cell lines; not shown
[4] = tested on: isoproterenol-stimulated, cAMP/PKA-dependent Cl− channel of cardiac ventricular myocytes; test: block of isoproterenol-stimulated Cl- channel in cardiac ventricular myocytes; format: cell-based; details: not shown, read-out: IC50 for block of Cl− channel function
rat atria = test: contractility of isolated spontaneously contracting rat atria; details: preincubation with 10 μM for 15 min
Method: To test this, rat atria were excised from a male albino rat and attached to a strain gauge to allow contractions to be measured. The spontaneously contracting tissue was suspended in a chamber and allowed to equilibrate for 15 min in Krebs-Henseleit medium (Sigma K3753) supplemented with 25 mM […], 2.5 mM CaCl2, and 2 mM pyruvate, maintained at 37° and continuously gassed with […].

[5] = tested on: adenylyl cyclase isolated from these tissues; test: effect on adenylyl cyclase isolated from the tissues; format: biochemical; details: concentrations up to 300 μM
[6] = Table 1, from Johnson and coll. [27-32], read-out: IC50 for rat brain adenylyl cyclase
[7] = Table 1, read-out: IC50 to inhibit adenylyl cyclase
[8] = Ob1771, 15 min preincubation, forskolin 15 min
[9] = 100 μM 5′ATP, 5 mM MnCl2, 100 μM forskolin, determined graphically, read-out: IC50, Rat Brain Adenylyl Cyclase
[10] = 2′-triphosphate forms, read-out: IC50 for inhibition of rat brain adenylyl cyclase

SMILES: CC1OC(n2cnc3c(N)ncnc32)CC1OP(=O)(O)OP(=O)(O)OP(=O)(O)OP(=O)(O)O (centres unmarked) [2′,5′ddAdo 3′˜PPPP]
IC50 [1, 6]: 7.4 nM

SMILES: C[C@H]1O[C@@H](n2cnc3c(N)ncnc32)C[C@@H]1OP(=O)(O)OP(=O)(O)OP(=O)(O)O [2′,5′ddAdo 3′˜PPP]
IC50 [1, 7]: 40 nM

SMILES: CC1OC(n2cnc3c(N)ncnc32)CC1OP(=O)(O)OP(=O)(O)O (centres unmarked) [2′,5′ddAdo 3′˜PP]
IC50 [1, 6]: 100 nM

SMILES: C[C@H]1O[C@@H](n2cnc3c(N)ncnc32)C[C@@H]1OP(O)(O)=S [2′,5′ddAdo 3′˜PS]
IC50 [1, 6]: 600 nM

SMILES: C[C@H]1O[C@@H](n2cnc3c(N)ncnc32)C[C@@H]1OP(=O)(O)O [2′,5′ddAdo 3′˜P]
IC50 [1, 6]: 460 nM

SMILES: C[C@H]1O[C@@H](n2cnc3c(N)ncnc32)C[C@@H]1O [2′,5′ddAdo, 2′,5′-dideoxyadenosine]
IC50 [1, 6]: 2700 nM

SMILES: Nc1ncnc2c1ncn2C1CC(OP(=O)(O)OP(=O)(O)OP(=O)(O)OP(=O)(O)O)C(CO)O1 (centres unmarked) [2′dAdo 3′˜PPPP]
IC50 [1, 6]: 10.5 nM

SMILES: Nc1ncnc2c1ncn2C1CC(OP(=O)(O)OP(=O)(O)OP(=O)(O)O)C(CO)O1 (centres unmarked) [2′dAdo 3′˜PPP]
IC50 [1, 6]: 90 nM

SMILES: Nc1ncnc2c1ncn2C1CC(OP(=O)(O)OP(=O)(O)O)C(CO)O1 (centres unmarked) [2′dAdo 3′˜PP]
IC50 [1, 6]: 140 nM

SMILES: Nc1ncnc2c1ncn2[C@H]1C[C@H](OP(O)(O)=S)[C@@H](CO)O1 [2′dAdo 3′˜PS]
IC50 [1, 6]: 3100 nM

SMILES: Nc1ncnc2c1ncn2[C@H]1C[C@H](OP(=O)(O)O)[C@@H](CO)O1 [2′dAdo 3′˜P]
IC50 [1, 6]: 1200 nM

SMILES: Nc1ncnc2c1ncn2[C@H]1C[C@H](O)[C@@H](CO)O1 [2′dAdo]
IC50 [1, 6]: 15000 nM

IC50 (Ob1771 pre-adipocytes; [8]): > 30000 nM
SMILES: CC(C)(C)C(=O)SCCOP(=O)(OCCSC(=O)C(C)(C)C)O[C@H]1CCC[C@H]1n1cnc2c(N)ncnc21 [(1R,2S)-9-(cyclopentyl)-Ade-2′-P-bis(t-Bu-SATE)]

IC50 (Ob1771 pre-adipocytes; [8]): > 30000 nM
SMILES: CC(C)(C)C(=O)SCCOP(=O)(OCCSC(=O)C(C)(C)C)O[C@@H]1CCC[C@@H]1n1cnc2c(N)ncnc21 [(1S,2R)-9-(cyclopentyl)-Ade-2′-P-bis(t-Bu-SATE)]

SMILES: Nc1ncnc2c1ncn2[C@@H]1O[C@H](CO)[C@@H](OP(=O)(O)OP(=O)(O)OP(=O)(O)O)[C@H]1O [Ado 3′˜PPP]
IC50 [1, 6]: 2000 nM

SMILES: Nc1ncnc2c1ncn2C1OC(CO)C(OP(=O)(O)OP(=O)(O)O)C1O (centres unmarked) [Ado 3′˜PP]
IC50 [1, 6]: 3900 nM

SMILES: Nc1ncnc2c1ncn2C1OC(CO)C(OP(=O)(O)O)C1O (centres unmarked) [Ado 3′˜P]
IC50 [1, 6]: 8900 nM

SMILES: Nc1ncnc2c1ncn2[C@@H]1O[C@H](CO)[C@@H](O)[C@H]1O [Ado]
IC50 [1, 6]: 82000 nM

SMILES: CC(=O)SCCOP(=O)(OCCSC(C)=O)O[C@H]1C[C@H](n2cnc3c(N)ncnc32)O[C@@H]1C [Compound 1, 2′,5′-dideoxyadenosine-3′-O-bis(S-acetyl-2-thioethyl) phosphate]
IC50 (F442A pre-adipocytes): 30 nM

SMILES: C[C@H]1O[C@@H](n2cnc3c(N)ncnc32)C[C@@H]1OP(=O)(OCCSC(=O)C(C)(C)C)OCCSC(=O)C(C)(C)C [Compound 2, 2,5′-dideoxyadenosine-3′-O-bis(S pivaloyl-2-thioethyl) phosphate]
inhibition of Rat Brain Adenylyl Cyclase at 100 μM ([2]; at 100 μM): no inhibition
effect on the activity of adenylyl cyclases per se, enzyme from rat brain ([2]; isolated enzyme): no effect
inhibition of adenylyl cyclase of Ob1771 cell membranes at 100 μM ([3]; at 100 μM): 20% inhibition
effect on the activity of adenylyl cyclases per se, enzyme from the preadipocytes ([3]; isolated enzyme): no effect
IC50 (Ob1771 pre-adipocytes; [8]): 30 nM
IC50 (F442A pre-adipocytes): 100 nM
IC50 (Human Macrophages; human macrophages, 15 min preincubation, forskolin 15 min): 50 nM
rate of differentiation (preadipocyte cell lines): accelerated rates of differentiation
IC50 [4]: ~82 nM
stimulation of contractility caused by phenylephrine (rat atria): completely blocked
stimulation of contractility caused by forskolin (rat atria; not shown): completely blocked
effect on adenylyl cyclase isolated from these tissues [5]: no effect

SMILES: C[C@H]1O[C@@H](n2cnc3c(N)ncnc32)C[C@@H]1OP(=O)(OCCSC(=O)c1ccccc1)OCCSC(=O)c1ccccc1 [Compound 3, 2,5′-dideoxyadenosine-3′-O-bis(S-benzoyl-2-thioethyl) phosphate]
IC50 (F442A pre-adipocytes): 800 nM

SMILES: C[C@H]1O[C@@H](n2cnc3c(N)ncnc32)C[C@@H]1OP(=O)(OCCSC(=O)C(C)(C)C)OCCSC(=O)C(C)(C)C [Compound 5, β-L-2′,5′-dideoxyadenosine-3′-O-bis(S-pivaloyl-2-thioethyl)-phosphate]
IC50 (F442A pre-adipocytes): ~2000 nM

SMILES: CC(C)(C)C(=O)SCCOP(=O)(OCCSC(=O)C(C)(C)C)OC[C@@H]1CC[C@H](n2cnc3c(N)ncnc32)O1 [Compound 8, β-L-2′,3′-dideoxyadenosine-5′-O-bis(S-pivaloyl-2-thioethyl)-phosphate]
IC50 (Ob1771 pre-adipocytes; [8]): > 30000 nM

SMILES: CC1OC(n2cnc3c(N)ncnc32)CC1OP1(=O)OCc2ccccc2O1 (centres unmarked) [Compound 10, 2′,5′-dideoxyadenosine-3.0-cyclosaligenyl phosphate]
IC50 [2, 9]: 7000 nM
IC50 [3]: 30000 nM
IC50 (Ob1771 pre-adipocytes): ~2000 nM
IC50 (Human Macrophages; Homo sapiens, Macrophage): ~2000 nM

SMILES: Cc1cccc2c1OP(=O)(OC1CC(n3cnc4c(N)ncnc43)OC1C)OC2 (centres unmarked) [Compound 11, 2′,5′-dideoxyadenosine-3′-O-cyclo-3-methyl-saligenyl phosphate]
IC50 [2, 9]: 7000 nM
IC50 [3]: 60000 nM
IC50 (Ob1771 pre-adipocytes): ~2000 nM

IC50 (Ob1771 pre-adipocytes; [8]): > 30000 nM
SMILES: CC(C)(C)C(=O)SCCOP(=O)(COCCn1cnc2c(N)ncnc21)OCCSC(=O)C(C)(C)C [Compound 13, bis(t-Bu-SATE)-9-(2-phosphonomethoxyethyl)-adenine]

SMILES: C[C@H](Cn1cnc2c(N)ncnc21)OCP(=O)(OCCSC(=O)C(C)(C)C)OCCSC(=O)C(C)(C)C [Compound 16, (R)-Bis(S-pivaloyl-2-thioethyl) 9-(2-phosphonylmethoxypropyl)-adenine]
IC50 (F442A pre-adipocytes): > 30000 nM

SMILES: Nc1ncnc2c1ncn2CCOCP(=O)(O)O [PMEA, 9-(phosphonomethoxyethyl)-adenine]
IC50 [1, 6]: 65000 nM

SMILES: Nc1ncnc2c1ncn2CCOCP(=O)(O)OP(=O)(O)OP(=O)(O)O [PMEApp]
IC50 [1, 7]: 170 nM

IC50 [2, 10]: 450 nM
SMILES: Nc1ncnc2c1ncn2[C@@H]1CCC[C@@H]1OP(=O)(O)OP(=O)(O)OP(=O)(O)O [reference compound]

IC50 [2, 10]: 9860 nM
SMILES: Nc1ncnc2c1ncn2[C@H]1CCC[C@H]1OP(=O)(O)OP(=O)(O)OP(=O)(O)O [reference compound]

SMILES: Nc1ncnc2c1ncn2[C@@H]1CC[C@H](COP(=O)(O)O)O1 [β-L-2′,3′-dd-5′-AMP]
IC50 [1, 6]: 62000 nM

SMILES: Nc1ncnc2c1ncn2C1CCC(COP(=O)(O)OP(=O)(O)OP(=O)(O)O)O1 [β-L-2′,3′-dd-5′-ATP]
IC50 [1, 7]: 24 nM

SMILES: Nc1ncnc2c1ncn2[C@H]1O[C@@H](COP(=O)(O)O)[C@H](O)[C@@H]1O [β-L-5′-AMP]
IC50 [1, 6]: 200000 nM
